The values below come from patent EP0402717A1, “5-nitro-tetrahydropyrimidines and insecticides containing them for agricultural uses” (NIHON BAYER AGROCHEM K.K., priority 1989, dated 1990).

Common to all, as to type: in vivo
In test [1] the test system is Sogatella furcifera Horvath. Nature of the test: Test on plant hoppers (spray on rice plants), white-backed rice planthopper. As to conditions: 48 h, read-out: Mortality (%) Whight bached rice planthopper. The method, then: (§1) A water dilution in a predetermined concentration of the active compound prepared as in Example 4 was sprayed onto rice plants, about 10 cm tall, grown in pots with a diameter of 12 cm in an amount of 10 ml per pot. The sprayed chemical was dried, and a wire net, 7 cm in diameter and 14 cm tall, was put over each of the pots. […] The mortality was then calculated.
(§2) In the same way as above, the mortality was calculated on Sogatella furcifera Horvath and organophosphorus-resistant Laodelphax striatellus Fallen.

Test [2] has as its system Laodelphax striatellus Fallen. Kind of test: Test on plant hoppers (spray on rice plants), small brown planthopper. As to conditions: 48 h, read-out: Mortality (%) Small brown planthopper. As to the method:
as §1, §2

The test system of another test is NiIaparvata lugens Stal. Nature of the test: Test on plant hoppers (spray on rice plants), brown rice planthopper. As to conditions: 48 h, read-out: Mortality (%) Brown rice planthopper. As to the method: as §1

Turning to `CN1CCN2C(=O)CCC([N+](=O)[O-])=C12` [Compound C-1], the mortality at 500 ppm (in test [1]; in test [2]; in the test with NiIaparvata lugens Stal) was 0% throughout.
`CNC1=C([N+](=O)[O-])CN(C)CN1Cc1ccc(Cl)nc1` [Compound 8]: the mortality at 500 ppm (in test [1]; in test [2]; in the test with NiIaparvata lugens Stal) was 100% each time.
For `CCCCCCCCCCCCN1CC([N+](=O)[O-])=C(NC)N(Cc2ccc(Cl)nc2)C1` [Compound 41], the mortality at 500 ppm (in test [1]; in test [2]; with NiIaparvata lugens Stal) was 100% throughout.
`O=c1[nH]c(=O)n2c(c1[N+](=O)[O-])NCC2` [Compound C-2]: the mortality at 500 ppm (in test [1]; in test [2]; in the test on NiIaparvata lugens Stal) was 0% throughout.

In general, mortality refers to the percentage killed.
